Test results published in PubChem BioAssay AID1963983 (Molecular Pharmacology Branch, DTP, NCI, 2024).
Where “and” joins values, the source holds several entries; their conditions need not be identical. Equal values may be shown once.

Test system: 186277-243-T-J2-PDC multi-cell spheroid viability
Test: Anticancer human tumor 186277-243-T-J2-PDC patient-derived colon adenocarcinoma cell line growth inhibition [PI3K]
Details: for viability, T/C: stronger effect = lower value; active = viability on the fitted dose curve at most 10% of control; inactive = the rest
Procedure, shortened: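 Stroma-containing spheroids: tumor line, pooled-donor HUVEC, hMSC. Treatments: targeted agents with PI3K inhibitors. Dosing: clinically relevant, half-log spacing, 10 microM ceiling without known Cmax. Read-out: cell viability.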

[1] = curve of first compound, second compound 0.0316 µM
[2] = curve of first compound, second compound 0.1 µM
[3] = curve of first compound, second compound 0.316 µM
[4] = curve of first compound, second compound 1 µM
[5] = curve of first compound, second compound 3.16 µM
[6] = curve of first compound, second compound 10 µM
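Also: spheroids exposed to compounds for seven days before viability reading.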
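For viability, T/C in this document: 100% = DMSO vehicle control viability.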

Cn1cnc2c(F)c(Nc3ccc(Br)cc3Cl)c(C(=O)NOCCO)cc21 + CC(Nc1ncnc2nc[nH]c12)c1cc2cccc(Cl)c2c(=O)n1-c1ccccc1
23.1 nM: IC50 [6]
114 nM: IC50 [4]
148 nM: IC50 [3]
62.7 nM: IC50 [5]
inactive: viability, T/C (second compound 0.0316 µM, first compound 0.00949 µM) 93% | viability, T/C (second compound 0.0316 µM, first compound 0.03 µM) 91.3% | viability, T/C (second compound 0.0316 µM, first compound 0.0949 µM) 58.8% | viability, T/C (second compound 0.0316 µM, first compound 0.3 µM) 38.9% | viability, T/C (second compound 0.0316 µM, first compound 0.949 µM) 23.3% | viability, T/C (second compound 0.0316 µM, first compound 3 µM) 10.3% | viability, T/C (second compound 0.1 µM, first compound 0.00949 µM) 115% | viability, T/C (second compound 0.1 µM, first compound 0.03 µM) 92.3% | viability, T/C (second compound 0.1 µM, first compound 0.0949 µM) 56.4% | viability, T/C (second compound 0.1 µM, first compound 0.3 µM) 40.1% | viability, T/C (second compound 0.1 µM, first compound 0.949 µM) 22.2% | viability, T/C (second compound 0.1 µM, first compound 3 µM) 12% | viability, T/C (second compound 0.316 µM, first compound 0.00949 µM) 91.1% | viability, T/C (second compound 0.316 µM, first compound 0.03 µM) 82.4% | viability, T/C (second compound 0.316 µM, first compound 0.0949 µM) 57.4% | viability, T/C (second compound 0.316 µM, first compound 0.3 µM) 37.5% | viability, T/C (second compound 0.316 µM, first compound 0.949 µM) 15.3% | viability, T/C (second compound 0.316 µM, first compound 3 µM) 12.5% | viability, T/C (second compound 1 µM, first compound 0.00949 µM) 112% | viability, T/C (second compound 1 µM, first compound 0.03 µM) 82.5% | viability, T/C (second compound 1 µM, first compound 0.0949 µM) 49.7% | viability, T/C (second compound 1 µM, first compound 0.3 µM) 35.1% | viability, T/C (second compound 1 µM, first compound 0.949 µM) 19.5% | viability, T/C (second compound 3.16 µM, first compound 0.00949 µM) 104% | viability, T/C (second compound 3.16 µM, first compound 0.03 µM) 64.1% | viability, T/C (second compound 3.16 µM, first compound 0.0949 µM) 39.9% | viability, T/C (second compound 3.16 µM, first compound 0.3 µM) 28.5% | viability, T/C (second compound 3.16 µM, first compound 0.949 µM) 18.3% | viability, T/C (second compound 3.16 µM, first compound 3 µM) 7.22% | viability, T/C (second compound 10 µM, first compound 0.00949 µM) 75.7% | viability, T/C (second compound 10 µM, first compound 0.03 µM) 41.1% | viability, T/C (second compound 10 µM, first compound 0.0949 µM) 25.4% | viability, T/C (second compound 10 µM, first compound 0.3 µM) 14.1%
175 nM: IC50 [1]
active: viability, T/C (second compound 1 µM, first compound 3 µM) 9.14% | viability, T/C (second compound 10 µM, first compound 0.949 µM) 8.69% | viability, T/C (second compound 10 µM, first compound 3 µM) 5.17%
162 nM: IC50 [2]

Cn1nccc1Nc1nccc(-c2ccn(C(CO)c3ccc(Cl)c(F)c3)c(=O)c2)n1 (stereo not drawn)
2.35 µM [middle of 4 runs]: IC50 (curve of compound)
inactive: viability, T/C (compound 0.0316 µM) 96.2% [middle of 4 runs] | viability, T/C (compound 0.1 µM) 102% and 103% (2×) and 105% | viability, T/C (compound 0.316 µM) 99.2% [middle of 4 runs] | viability, T/C (compound 1 µM) 81% [middle of 4 runs] | viability, T/C (compound 3.16 µM) 37.2% [middle of 4 runs] | viability, T/C (compound 10 µM) 26.7% [middle of 4 runs]

CC(C)NCC(C(=O)N1CCN(c2ncnc3c2C(C)CC3O)CC1)c1ccc(Cl)cc1 (stereo not drawn)
1.99 µM [middle of 4 runs]: IC50 (curve of compound)
inactive: viability, T/C (compound 0.0316 µM) 93.8% [middle of 4 runs] | viability, T/C (compound 0.1 µM) 88.2% [middle of 4 runs] | viability, T/C (compound 0.316 µM) 77.6% [middle of 4 runs] | viability, T/C (compound 1 µM) 55.6% [middle of 4 runs] | viability, T/C (compound 3.16 µM) 45.9% [middle of 4 runs] | viability, T/C (compound 10 µM) 28.2% (2×) and 31.3% and 28.7%

CC1(C)CCC(Nc2ncc(C(F)(F)F)c(-c3c[nH]c4c(P(C)(C)=O)c(C#N)ccc34)n2)CN1 (stereo not drawn) + CC(Nc1ncnc2nc[nH]c12)c1cc2cccc(Cl)c2c(=O)n1-c1ccccc1
4090 nM: IC50 [3]
3950 nM: IC50 [4]
inactive: viability, T/C (second compound 0.0316 µM, first compound 0.0316 µM) 77.7% | viability, T/C (second compound 0.0316 µM, first compound 0.1 µM) 61.8% | viability, T/C (second compound 0.0316 µM, first compound 0.316 µM) 58% | viability, T/C (second compound 0.0316 µM, first compound 1 µM) 59.9% | viability, T/C (second compound 0.0316 µM, first compound 3.16 µM) 66.5% | viability, T/C (second compound 0.1 µM, first compound 0.0316 µM) 92.4% | viability, T/C (second compound 0.1 µM, first compound 0.1 µM) 57.1% | viability, T/C (second compound 0.1 µM, first compound 0.316 µM) 62% | viability, T/C (second compound 0.1 µM, first compound 1 µM) 64.4% | viability, T/C (second compound 0.1 µM, first compound 3.16 µM) 68.6% | viability, T/C (second compound 0.316 µM, first compound 0.0316 µM) 81.3% | viability, T/C (second compound 0.316 µM, first compound 0.1 µM) 57.7% | viability, T/C (second compound 0.316 µM, first compound 0.316 µM) 58.3% | viability, T/C (second compound 0.316 µM, first compound 1 µM) 64.1% | viability, T/C (second compound 0.316 µM, first compound 3.16 µM) 64.2% | viability, T/C (second compound 1 µM, first compound 0.0316 µM) 75.4% | viability, T/C (second compound 1 µM, first compound 0.1 µM) 61% | viability, T/C (second compound 1 µM, first compound 0.316 µM) 60.8% | viability, T/C (second compound 1 µM, first compound 1 µM) 63% | viability, T/C (second compound 1 µM, first compound 3.16 µM) 61.9% | viability, T/C (second compound 3.16 µM, first compound 0.0316 µM) 80.1% | viability, T/C (second compound 3.16 µM, first compound 0.1 µM) 69.1% | viability, T/C (second compound 3.16 µM, first compound 0.316 µM) 63.4% | viability, T/C (second compound 3.16 µM, first compound 1 µM) 67.2% | viability, T/C (second compound 3.16 µM, first compound 3.16 µM) 63% | viability, T/C (second compound 10 µM, first compound 0.0316 µM) 72% | viability, T/C (second compound 10 µM, first compound 0.1 µM) 59.5% | viability, T/C (second compound 10 µM, first compound 0.316 µM) 55.1% | viability, T/C (second compound 10 µM, first compound 1 µM) 53.8% | viability, T/C (second compound 10 µM, first compound 3.16 µM) 30.2%
4000 nM: IC50 [5]
865 nM: IC50 [6]
active: viability, T/C (second compound 0.0316 µM, first compound 10 µM) 1.23% | viability, T/C (second compound 0.1 µM, first compound 10 µM) 1.55% | viability, T/C (second compound 0.316 µM, first compound 10 µM) 0.31% | viability, T/C (second compound 1 µM, first compound 10 µM) 0.97% | viability, T/C (second compound 3.16 µM, first compound 10 µM) 0.64% | viability, T/C (second compound 10 µM, first compound 10 µM) 1.26%
4350 nM: IC50 [2]
4130 nM: IC50 [1]
